Where “and” joins values, the source holds several entries; their conditions need not be identical. Equal values may be shown once. Toxic doses and inconclusive results are not listed. Rule as the data show it: active = T/C of 150% or more; inactive = T/C below 125%. Peptide text beside a SMILES is read from it.
Tested on: L1210 leukemia ip in BDF1 mice, survival T/C
Assay: NCI In Vivo Anticancer Drug Screen. Data for tumor model L1210 Leukemia (intraperitoneal) in B6D2F1 (BDF1) mice
Details: endpoint: mean survival time, higher = longer survival
In short: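 Transplantable tumor model; survival measured in treated vs vehicle control mice. Value = treated/control.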

[1] = dose: 75.0 mg/kg/injection, schedule: Q04DX003 (ip), vehicle: saline
[2] = dose: 100.0 mg/kg/injection, schedule: Q04DX003 (ip), vehicle: saline
[3] = dose: 200.0 mg/kg/injection, schedule: Q04DX003 (ip), vehicle: saline
[4] = dose: 400.0 mg/kg/injection, schedule: Q04DX003 (ip), vehicle: saline
[5] = dose: 100.0 mg/kg/injection, schedule: Q04DX003 (ip), vehicle: saline with Tween-80
[6] = dose: 200.0 mg/kg/injection, schedule: Q04DX003 (ip), vehicle: saline with Tween-80
[7] = dose: 25.0 mg/kg/injection, schedule: Q04DX002 (ip), vehicle: Klucel (hydroxypropylcellulose) (HPC)
[8] = dose: 50.0 mg/kg/injection, schedule: Q04DX002 (ip), vehicle: Klucel (hydroxypropylcellulose) (HPC)
[9] = dose: 100.0 mg/kg/injection, schedule: Q04DX002 (ip), vehicle: Klucel (hydroxypropylcellulose) (HPC)
[10] = dose: 100.0 mg/kg/injection, schedule: Q01DX009 (ip), vehicle: saline with Tween-80
[11] = dose: 200.0 mg/kg/injection, schedule: Q01DX009 (ip), vehicle: saline with Tween-80
[12] = dose: 400.0 mg/kg/injection, schedule: Q01DX009 (ip), vehicle: saline with Tween-80
[13] = dose: 100.0 mg/kg/injection, schedule: Q01DX001 (ip), vehicle: saline
[14] = dose: 200.0 mg/kg/injection, schedule: Q01DX001 (ip), vehicle: saline
[15] = dose: 400.0 mg/kg/injection, schedule: Q01DX001 (ip), vehicle: saline
[16] = dose: 100.0 mg/kg/injection, schedule: Q04DX002 (ip), vehicle: saline with Tween-80
[17] = dose: 200.0 mg/kg/injection, schedule: Q04DX002 (ip), vehicle: saline with Tween-80
[18] = dose: 400.0 mg/kg/injection, schedule: Q04DX002 (ip), vehicle: saline with Tween-80

Measured: T/C

CCCCCCCCCCCCCCNCCC(=O)O
inactive: dose: 37.5 mg/kg/injection, schedule: Q04DX003 (ip), vehicle: saline 102 % of control | [1] 101 % of control | dose: 150.0 mg/kg/injection, schedule: Q04DX003 (ip), vehicle: saline 102 % of control

N#[N+]c1c([O-])[nH]c(=S)[nH]c1=O
inactive: dose: 100.0 mg/kg/injection, schedule: Q01DX009 (ip), vehicle: acetone 92 % of control | dose: 100.0 mg/kg/injection, schedule: Q04DX003 (ip), vehicle: acetone 100 % of control | dose: 200.0 mg/kg/injection, schedule: Q01DX009 (ip), vehicle: acetone 96 % of control | dose: 200.0 mg/kg/injection, schedule: Q04DX003 (ip), vehicle: acetone 103 % of control | dose: 400.0 mg/kg/injection, schedule: Q01DX009 (ip), vehicle: acetone 88 % of control | dose: 400.0 mg/kg/injection, schedule: Q04DX003 (ip), vehicle: acetone 94 % of control

CCCCCc1cc(O)c(CCCC)c(O)c1
inactive: dose: 6.25 mg/kg/injection, schedule: Q04DX002 (ip), vehicle: other 97 % of control | dose: 12.5 mg/kg/injection, schedule: Q04DX002 (ip), vehicle: other 110 % of control | dose: 25.0 mg/kg/injection, schedule: Q04DX002 (ip), vehicle: other 93 % of control | dose: 50.0 mg/kg/injection, schedule: Q04DX002 (ip), vehicle: other 93 % of control

CCCCCCCCCCCCCCCCc1ccc(CCCC(=O)O)cc1
inactive: dose: 100.0 mg/kg/injection, schedule: Q04DX003 (ip), vehicle: Klucel (hydroxypropylcellulose) (HPC) 91 % of control | dose: 200.0 mg/kg/injection, schedule: Q04DX003 (ip), vehicle: Klucel (hydroxypropylcellulose) (HPC) 92 % of control | dose: 400.0 mg/kg/injection, schedule: Q04DX003 (ip), vehicle: Klucel (hydroxypropylcellulose) (HPC) 91 % of control

O=C1NCN(CCO)CN1
inactive: [2] 95 % of control | [3] 91 % of control | [4] 98 % of control

Cc1ccc(S(=O)(=O)Nc2c(C)c(Cl)c(C)c3ccccc23)cc1
inactive: [5] 94 % of control | [6] 87 % of control | dose: 400.0 mg/kg/injection, schedule: Q04DX003 (ip), vehicle: saline with Tween-80 89 % of control

C=C(C)C(C(=O)OC)n1scc(NCc2ccccc2)c1=O (stereo not drawn)
inactive: [2] 91 % of control | [3] 91 % of control | [4] 89 % of control

Oc1ccc2c(c1)CCCC2
inactive: [1] 102 % of control

Cc1ccc(CNC(=O)Nc2ccccc2)c(C)c1
inactive: dose: 100.0 mg/kg/injection, schedule: Q01DX009 (ip), vehicle: other 103 % of control | dose: 200.0 mg/kg/injection, schedule: Q01DX009 (ip), vehicle: other 91 % of control | dose: 400.0 mg/kg/injection, schedule: Q01DX009 (ip), vehicle: other 101 % of control

c1ccc(Nc2nc(Nc3ccccc3)nc(Nc3ccccc3)n2)cc1
inactive: [7] 92 % of control | [8] 92 % of control | [9] 88 % of control

N#CC1CC2c3ccccc3C1([N+](=O)[O-])c1ccccc12 (stereo not drawn)
inactive: dose: 100.0 mg/kg/injection, schedule: Q01DX001 (ip), vehicle: Klucel (hydroxypropylcellulose) (HPC) 90 % of control | dose: 100.0 mg/kg/injection, schedule: Q01DX009 (ip), vehicle: Klucel (hydroxypropylcellulose) (HPC) 98 % of control | dose: 200.0 mg/kg/injection, schedule: Q01DX001 (ip), vehicle: Klucel (hydroxypropylcellulose) (HPC) 104 % of control | dose: 200.0 mg/kg/injection, schedule: Q01DX009 (ip), vehicle: Klucel (hydroxypropylcellulose) (HPC) 98 % of control | dose: 400.0 mg/kg/injection, schedule: Q01DX001 (ip), vehicle: Klucel (hydroxypropylcellulose) (HPC) 96 % of control | dose: 400.0 mg/kg/injection, schedule: Q01DX009 (ip), vehicle: Klucel (hydroxypropylcellulose) (HPC) 103 % of control

NNC(=O)CCCCCO
inactive: [10] 102 % of control | [11] 100 % of control | [12] 100 % of control

S=P(Oc1cc(Cl)c(Cl)cc1Cl)(N1CCN(c2ccccc2)CC1)N1CCN(c2ccccc2)CC1
inactive: [13] 90 % of control | [14] 90 % of control | [15] 88 % of control

[Br][Ce]([Br])[Br]
inactive: [2] 91 % of control | [3] 94 % of control | [4] 94 % of control

O=C(/C=C/c1ccccc1)NC(=S)Nc1cc(C(F)(F)F)ccc1Cl
inactive: dose: 100.0 mg/kg/injection, schedule: Q01DX001 (ip), vehicle: saline with Tween-80 103 % of control | [10] 92 % of control and 86 % of control | [16] 98 % of control and 90 % of control | [5] 100 % of control | dose: 200.0 mg/kg/injection, schedule: Q01DX001 (ip), vehicle: saline with Tween-80 95 % of control | [11] 92 % of control and 90 % of control | [17] 93 % of control and 114 % of control | [6] 94 % of control | dose: 400.0 mg/kg/injection, schedule: Q01DX001 (ip), vehicle: saline with Tween-80 101 % of control | [12] 95 % of control and 89 % of control | [18] 95 % of control and 101 % of control

COc1ccc(OC)c(NC(=O)Nc2cc([N+](=O)[O-])ccc2C)c1
inactive: dose: 200.0 mg/kg/injection, schedule: Q04DX002 (ip), vehicle: Klucel (hydroxypropylcellulose) (HPC) 92 % of control | dose: 400.0 mg/kg/injection, schedule: Q04DX002 (ip), vehicle: Klucel (hydroxypropylcellulose) (HPC) 100 % of control

O=C(OCc1ccccc1)c1ccc(OCc2ccccc2)cc1
inactive: [2] 94 % of control | [3] 100 % of control | [4] 96 % of control

NC(CCC(=O)O)C(=O)NC(CC(=O)O)C(=O)O (stereo not drawn) (H-Glu-Asp-OH; configuration not given here)
inactive: dose: 12.5 mg/kg/injection, schedule: Q04DX002 (ip), vehicle: Klucel (hydroxypropylcellulose) (HPC) 90 % of control | [7] 105 % of control | [8] 98 % of control | [9] 94 % of control

[C-]#[N+]/C=C1\OC(=O)C=C1C
inactive: [16] 97 % of control | [17] 110 % of control | [18] 97 % of control

COc1ccc(C(Br)C(Br)C(=O)c2ccc3c(c2)OCO3)cc1OC (stereo not drawn)
inactive: [2] 92 % of control | [3] 89 % of control | [4] 98 % of control

COc1ccc(C(=S)N2CCN(c3cccc(Cl)c3)CC2)cc1
inactive: [13] 96 % of control | [14] 91 % of control | [15] 91 % of control

CCCCCC/C=C/C#CCCCCCCCC(=O)O
inactive: dose: 37.5 mg/kg/injection, schedule: Q01DX009 (ip), vehicle: Klucel (hydroxypropylcellulose) (HPC) 105 % of control | dose: 75.0 mg/kg/injection, schedule: Q01DX009 (ip), vehicle: Klucel (hydroxypropylcellulose) (HPC) 98 % of control | dose: 150.0 mg/kg/injection, schedule: Q01DX009 (ip), vehicle: Klucel (hydroxypropylcellulose) (HPC) 102 % of control

NC(N)=N/N=C/c1cccc(Cl)c1Cl
inactive: dose: 7.5 mg/kg/injection, schedule: Q01DX Z (ip), vehicle: other 97 % of control | dose: 15.0 mg/kg/injection, schedule: Q01DX Z (ip), vehicle: other 100 % of control | dose: 30.0 mg/kg/injection, schedule: Q01DX Z (ip), vehicle: other 92 % of control | dose: 60.0 mg/kg/injection, schedule: Q01DX Z (ip), vehicle: other 86 % of control

From PubChem BioAssay AID248 (DTP/NCI, 2004)
